Test results: publication PMC5034043 (The Journal of Biological Chemistry, 2016)
Read-outs that look alike come from different tables or passages of the source.

Tested on: T1, synaptosomal proteome
T1 construct: from tissue; host or cells: brain synaptosomes of male C57/B6 mice
Type: binding, mouse
Description: Synaptosomes were resuspended to 1 mg of protein/ml in HEPES buffer medium (in mM: 140 NaCl, 5 KCl, 5 NaHCO3, 1.2 NaH2PO4, 1 MgCl2, 10 glucose, and 10 HEPES (pH 7.4)). […] The samples were allowed to equilibrate for 5 min before being transferred to a parafilm-sealed 1-mm path length quartz cuvette. The sample was then irradiated for 20 min at a peak bandwidth of 350 nm (Rayonet RPR-3500 lamp) ∼6 cm from the light source. Non-irradiated samples were left in the dark at ambient temperature (22–25 °C) for 20 min. All remaining procedures were conducted with restricted light exposure.
To 750 μg of photolabeled or control synaptosome samples, 40 μl of 10% SDS and 2 μl of 5 mM DTT in water were added. Samples were then vortexed, heated for 10 min at 65 °C, and then briefly cooled. Final concentrations of 150 μM azide-biotin (Click Chemistry Tools), 2 mM tris(3-hydroxypropyltriazolylmethyl)amine (Sigma), 1 mM ascorbic acid (Sigma), and 1 mM CuSO4·5H2O (Sigma) were added to each sample and vortexed vigorously. The samples were left in the dark at ambient temperature (22–25 °C) for 1 h with mild agitation. Directly to each sample 4× volume chilled methanol, 1.5× chilled chloroform, and 3× chilled double distilled H2O were added. Samples were vortexed vigorously and centrifuged at 1,400 × g for 30 min at 4 °C. Both liquid layers were carefully removed, and the protein pellet was washed with 2 ml of 1:1 (v/v) chilled methanol/chloroform. Samples were centrifuged at 3,500 × g for 30 min at 4 °C. Protein pellets were briefly air-dried before further processing.
750 μg of biotin-conjugated protein sample was resuspended in 500 μl of 25 mM NH4HCO3 and 6 M urea in water. Next, 150 μl of 5% Triton X-100 in water, 50 μl of 10% SDS in water, and 1.5 μl of 0.5 M DTT were added. The samples were heated for 15 min at 65 °C. After briefly cooling, 14 μl of 0.5 M iodoacetamide in water was added, and the sample was left in the dark for 45 min. […] The supernatant was diluted to 4 ml with PBS, and 2 ml of PBS containing 100 μl of 50% streptavidin-agarose resin (Thermo Scientific) was added. Biotinylated proteins within the sample were captured over resin overnight at 4 °C with mild agitation. The resin was first washed with 6 ml of 1% SDS in PBS, and then 7 ml of 0.1 M urea in PBS followed by 10 ml of PBS. The resin underwent a final wash with 0.9 ml of 50 mM Tris-HCl and 1 mM CaCl2 in water (pH 8.0) and then resuspended in 200 μl of 50 mM Tris-HCl, 1 mM CaCl2 in water (pH 8.0), and 2 μg of porcine sequencing grade trypsin (Promega). Samples were digested overnight at 37 °C. Samples were then centrifuged at 2,000 × g for 4 min, and digest supernatant was decanted. Beads were washed in 100 μl of PBS centrifuged at 5,200 × g for 5 min, and the wash was combined with the digest supernatant. To the combined sample, trifluoroacetic acid (TFA) was added to 0.4% (v/v) or until pH <2. The sample was desalted with Oasis C18 10-mg columns (Waters) as described previously ([66]). The eluted sample was dried by speed vac and resuspended in 0.1 M HEPES buffer (pH 8.5). […] Appropriate corresponding TMTsixplex^TM-labeled samples were pooled and dried by speed vac. The combined samples were resuspended in 0.5% acetic acid in water and pH-corrected with acetic acid until pH was <2. 40 μg of protein was desalted with C18 stage tips prepared in-house and dried by speed vac.
Samples were resuspended in 10 mM KH2PO4 (pH 2.6), 30% acetonitrile (v/v) in water, and fractionated by off-line strong cation exchange chromatography prior to mass spectrometry (MS) analysis similar to as reported previously ([66]). The full synaptosome proteome control was prepared similarly without TMTsixplex^TM labeling.
All TMT samples were analyzed with three-stage mass spectrometry (MS3) TMTsixplex^TM quantification workflow as described previously ([34]).

[1] = protein P26049 Gamma-aminobutyric acid receptor subunit alpha-3 (Gabra3)
[2] = protein P27671 Ras-specific guanine nucleotide-releasing factor 1 (Rasgrf1)
[3] = protein P35762 CD81 antigen (Cd81)
[4] = protein P50571 Gamma-aminobutyric acid receptor subunit beta-1 (Gabrb1)
[5] = protein P56480 ATP synthase subunit beta, mitochondrial (Atp5b)
[6] = protein P56564 Excitatory amino acid transporter 1 (Slc1a3)
[7] = protein P60879 Synaptosomal-associated protein 25 (Snap25)
[8] = protein P61264 Syntaxin-1B (Stx1b)
[9] = protein P62204 Calmodulin (Calm1)
[10] = protein P63328 Serine/threonine-protein phosphatase 2B catalytic subunit alpha isoform (Ppp3ca)
[11] = protein Q2TPA8 Hydroxysteroid dehydrogenase-like protein 2 (Hsdl2)
[12] = protein Q3TXX4 Vesicular glutamate transporter 1 (Slc17a7)
[13] = protein Q3UN02 Lysocardiolipin acyltransferase 1 (Lclat1)
[14] = protein Q4W8U9 Scg2 protein (Scg2)
[15] = protein Q5IRJ6 Zinc transporter 9 (Slc30a9)
[16] = protein Q5U458 DnaJ homolog subfamily C member 11 (Dnajc11)
[17] = protein Q7TME0 Lipid phosphate phosphatase-related protein type 4 (Lppr4)
[18] = protein Q7TQ95 Protein lunapark (Lnp)
[19] = protein Q8BFT9 Synaptic vesicle 2-related protein (Svop)
[20] = protein Q8BG51 Mitochondrial Rho GTPase 1 (Rhot1)
[21] = protein Q8BH24 Transmembrane 9 superfamily member 4 (Tm9sf4)
[22] = protein Q8BH66 Atlastin-1 (Atl1)
[23] = protein Q8BHE3 Caytaxin (Atcay)
[24] = protein Q8BUN9 Protein Slc24a2 (Slc24a2)
[25] = protein Q8BW75 Amine oxidase [flavin-containing] B (Maob)
[26] = protein Q8CGK7 Guanine nucleotide-binding protein G(olf) subunit alpha (Gnal)
[27] = protein Q8K0T0 Reticulon-1 (Rtn1)
[28] = protein Q8VCX5 Calcium uptake protein 1, mitochondrial (Micu1)
[29] = protein Q9CPQ3 Mitochondrial import receptor subunit TOM22 homolog (Tomm22)
[30] = protein Q9D6J5 NADH dehydrogenase [ubiquinone] 1 beta subcomplex subunit 8, mitochondrial (Ndufb8)
[31] = protein Q9D328 Transmembrane protein 35 (Tmem35)
[32] = protein Q9ERS2 NADH dehydrogenase [ubiquinone] 1 alpha subcomplex subunit 13 (Ndufa13)
[33] = protein Q9ESW4 Acylglycerol kinase, mitochondrial (Agk)
[34] = protein Q9JIG8 PRA1 family protein 2 (Praf2)
[35] = protein Q9QXV0 ProSAAS (Pcsk1n)
[36] = protein Q9WU79 Proline dehydrogenase 1, mitochondrial (Prodh)
[37] = protein Q9Z0V2 Potassium voltage-gated channel subfamily D member 2 (Kcnd2)
[38] = protein Q67BT3 Solute carrier family 13 member 5 (Slc13a5)
[39] = protein Q80X80 C2 domain-containing protein 2-like (C2cd2l)
[40] = protein Q91YQ5 Dolichyl-diphosphooligosaccharide--protein glycosyltransferase subunit 1 (Rpn1)
[41] = protein Q99JB2 Stomatin-like protein 2, mitochondrial (Stoml2)
[42] = protein Q99PU5 Long-chain-fatty-acid--CoA ligase ACSBG1 (Acsbg1)
[43] = protein Q925I1 ATPase family AAA domain-containing protein 3 (Atad3)

SMILES: C#CCOCc1ccc(C2(C(F)(F)F)N=N2)cc1O [AziPm-click (1), 2-((prop-2-yn-1-yloxy)methyl)-5-(3-(trifluoromethyl)-3H-diazirin-3-yl)phenol]
- TMT Ratio Mean 'UV/ No UV' (protein O35963 Ras-related protein Rab-33B (Rab33b)): 16.23
- Log2( Mean 'UV/ No UV') (protein P23819-4 Isoform 4 of Glutamate receptor 2 (Gria2)): 3.65
- Log2( Mean 'UV/ No UV') [1]: 4.09
- TMT Ratio Mean 'UV/ No UV' [1]: 17.05
- Log2( Mean 'UV/ No UV') [2]: 4.14
- TMT Ratio Mean 'UV/ No UV' [2]: 17.58
- Log2( Mean 'UV/ No UV') (protein P35564 Calnexin (Canx)): 4.47
- TMT Ratio Mean 'UV/ No UV' (protein P35564 Calnexin (Canx)): 22.10
- Log2( Mean 'UV/ No UV') [3]: 4.34
- TMT Ratio Mean 'UV/ No UV' [3]: 20.23
- Log2( Mean 'UV/ No UV') [4]: 4.63
- TMT Ratio Mean 'UV/ No UV' [4]: 24.73
- Log2( Mean 'UV/ No UV') [5]: 3.54
- TMT Ratio Mean 'UV/ No UV' [5]: 11.59
- Log2( Mean 'UV/ No UV') [6]: 4.59
- TMT Ratio Mean 'UV/ No UV' [6]: 24.11
- Log2( Mean 'UV/ No UV') [7]: 4.57
- TMT Ratio Mean 'UV/ No UV' [7]: 23.77
- Log2( Mean 'UV/ No UV') [8]: 4.37
- TMT Ratio Mean 'UV/ No UV' [8]: 20.71
- Log2( Mean 'UV/ No UV') [9]: 4.63
- TMT Ratio Mean 'UV/ No UV' [9]: 24.78
- Log2( Mean 'UV/ No UV') [10]: 3.65
- TMT Ratio Mean 'UV/ No UV' [10]: 12.55
- Log2( Mean 'UV/ No UV') (protein P70429-2 Isoform 1 of Ena/VASP-like protein (Evl)): 4.31
- Log2( Mean 'UV/ No UV') (protein P97300-3 Isoform 3 of Neuroplastin (Nptn)): 3.67
- Log2( Mean 'UV/ No UV') [11]: 3.68
- TMT Ratio Mean 'UV/ No UV' [11]: 12.83
- Log2( Mean 'UV/ No UV') [12]: 4.04
- TMT Ratio Mean 'UV/ No UV' [12]: 16.48
- Log2( Mean 'UV/ No UV') [13]: 4.50
- TMT Ratio Mean 'UV/ No UV' [13]: 22.69
- Log2( Mean 'UV/ No UV') [14]: 4.03
- TMT Ratio Mean 'UV/ No UV' [14]: 16.35
- Log2( Mean 'UV/ No UV') [15]: 4.34
- TMT Ratio Mean 'UV/ No UV' [15]: 20.22
- Log2( Mean 'UV/ No UV') [16]: 3.93
- TMT Ratio Mean 'UV/ No UV' [16]: 15.27
- Log2( Mean 'UV/ No UV') [17]: 3.46
- TMT Ratio Mean 'UV/ No UV' [17]: 10.98
- Log2( Mean 'UV/ No UV') [18]: 3.56
- TMT Ratio Mean 'UV/ No UV' [18]: 11.82
- Log2( Mean 'UV/ No UV') [19]: 3.80
- TMT Ratio Mean 'UV/ No UV' [19]: 13.90
- Log2( Mean 'UV/ No UV') [20]: 3.48
- TMT Ratio Mean 'UV/ No UV' [20]: 11.17
- Log2( Mean 'UV/ No UV') [21]: 4.09
- TMT Ratio Mean 'UV/ No UV' [21]: 16.97
- Log2( Mean 'UV/ No UV') [22]: 4.36
- TMT Ratio Mean 'UV/ No UV' [22]: 20.55
- Log2( Mean 'UV/ No UV') [23]: 4.15
- TMT Ratio Mean 'UV/ No UV' [23]: 17.78
- Log2( Mean 'UV/ No UV') (protein Q8BJU0-2 Isoform 2 of Small glutamine-rich tetratricopeptide repeat-containing protein alpha (Sgta)): 3.93
- Log2( Mean 'UV/ No UV') [24]: 4.26
- TMT Ratio Mean 'UV/ No UV' [24]: 19.15
- Log2( Mean 'UV/ No UV') [25]: 4.59
- TMT Ratio Mean 'UV/ No UV' [25]: 24.13
- Log2( Mean 'UV/ No UV') [26]: 3.86
- TMT Ratio Mean 'UV/ No UV' [26]: 14.56
- Log2( Mean 'UV/ No UV') [27]: 3.46
- TMT Ratio Mean 'UV/ No UV' [27]: 10.99
- Log2( Mean 'UV/ No UV') [28]: 4.33
- TMT Ratio Mean 'UV/ No UV' [28]: 20.04
- Log2( Mean 'UV/ No UV') [29]: 4.38
- TMT Ratio Mean 'UV/ No UV' [29]: 20.75
- Log2( Mean 'UV/ No UV') [30]: 4.29
- TMT Ratio Mean 'UV/ No UV' [30]: 19.55
- Log2( Mean 'UV/ No UV') [31]: 4.09
- TMT Ratio Mean 'UV/ No UV' [31]: 16.99
- Log2( Mean 'UV/ No UV') (protein Q9DBF1-2 Isoform 2 of Alpha-aminoadipic semialdehyde dehydrogenase (Aldh7a1)): 3.89
- Log2( Mean 'UV/ No UV') (protein Q9EPJ9-2 Isoform 2 of ADP-ribosylation factor GTPase-activating protein 1 (Arfgap1)): 3.44
- Log2( Mean 'UV/ No UV') [32]: 4.27
- TMT Ratio Mean 'UV/ No UV' [32]: 19.26
- Log2( Mean 'UV/ No UV') [33]: 4.32
- TMT Ratio Mean 'UV/ No UV' [33]: 20.02
- Log2( Mean 'UV/ No UV') [34]: 3.94
- TMT Ratio Mean 'UV/ No UV' [34]: 15.37
- Log2( Mean 'UV/ No UV') [35]: 3.87
- TMT Ratio Mean 'UV/ No UV' [35]: 14.66
- Log2( Mean 'UV/ No UV') [36]: 4.21
- TMT Ratio Mean 'UV/ No UV' [36]: 18.52
- Log2( Mean 'UV/ No UV') [37]: 3.71
- TMT Ratio Mean 'UV/ No UV' [37]: 13.09
- Log2( Mean 'UV/ No UV') [38]: 3.47
- TMT Ratio Mean 'UV/ No UV' [38]: 11.09
- Log2( Mean 'UV/ No UV') [39]: 4.07
- TMT Ratio Mean 'UV/ No UV' [39]: 16.73
- Log2( Mean 'UV/ No UV') [40]: 3.76
- TMT Ratio Mean 'UV/ No UV' [40]: 13.55
- Log2( Mean 'UV/ No UV') [41]: 4.08
- TMT Ratio Mean 'UV/ No UV' [41]: 16.91
- Log2( Mean 'UV/ No UV') [42]: 4.16
- TMT Ratio Mean 'UV/ No UV' [42]: 17.83
- Log2( Mean 'UV/ No UV') [43]: 4.41
- TMT Ratio Mean 'UV/ No UV' [43]: 21.20
